Measured values: article PMC7516806, “Hybrid Antimicrobial Peptide Targeting Staphylococcus aureus and Displaying Anti-infective Activity in a Murine Model” (Frontiers in Microbiology, 2020)
≈ marks a conversion by molar mass, not a printed value. Positions of bridges follow the written chain, without caps; N, C: chain ends. Residues, ends and D or L forms follow the SMILES beside them.

Key:
L. rhamnosus 7469 = experiment: MIC, modified microtiter dilution; type: cell-based, Lactobacillus rhamnosus; conditions: 2–7 × 10^5 CFU/ml, 37°C, 24 h, no turbidity, at least three independent repeats
From the text: (§1) The experiment was repeated at least three times independently.

L. rhamnosus 1.0911 = experiment: MIC, modified microtiter dilution; type: cell-based, Lactobacillus rhamnosus; conditions: 2–7 × 10^5 CFU/ml, 37°C, 24 h, no turbidity, at least three independent repeats
From the text: as §1

L. rhamnosus 1.0385 = experiment: MIC, modified microtiter dilution; type: cell-based, Lactobacillus rhamnosus; conditions: 2–7 × 10^5 CFU/ml, 37°C, 24 h, no turbidity, at least three independent repeats
From the text: as §1

L. rhamnosus 1.0936 = experiment: MIC, modified microtiter dilution; type: cell-based, Lactobacillus rhamnosus; conditions: 2–7 × 10^5 CFU/ml, 37°C, 24 h, no turbidity, at least three independent repeats
From the text: as §1

E. coli 25922 = experiment: MIC, modified microtiter dilution; type: cell-based, Escherichia coli; conditions: MHB, 2–7 × 10^5 CFU/ml, 37°C, 24 h, lowest concentration with no turbidity, at least three independent repeats
From the text: as §1

E. coli UB1005 = experiment: MIC, modified microtiter dilution; type: cell-based, Escherichia coli; conditions: MHB, 2–7 × 10^5 CFU/ml, 37°C, 24 h, no turbidity, at least three independent repeats
From the text: as §1

MRSA 43300 = type: cell-based, Staphylococcus aureus; conditions: MHB, 2–7 × 10^5 CFU/ml, 37°C, 24 h, no turbidity, at least three independent repeats
From the text: as §1

S. aureus ATCC 29213 = experiment: Time-dependent killing kinetics; type: cell-based, Staphylococcus aureus; conditions: six independent trials
Experimental: The logarithmic phase S. aureus ATCC 29213 cells were harvested by centrifugation at 1000 × g for 5 min, washed twice with PBS, and diluted to 2–7 × 10^5 CFU/mL. S. aureus was treated with AMPs at various concentrations, including 0.125, 0.25, 0.5, 1, and 2 × MIC. At various time intervals (5 s, 10 s, 30 s, 1 min, 5 min, 10 min, and 30 min), 50 μL of bacterial solution was diluted and plated on MHA plates. Bacterial colonies were counted after 24 h of incubation at 37°C. The results were carried out in six independent trials.

S. aureus 29213 [1] = experiment: Mouse model of subcutaneous infection; type: in vivo, ICR mice; conditions: 80× MIC
Experimental: (§2) To assess the antimicrobial activity of the peptide in vivo, a mouse model of subcutaneous infection was used ([Huang et al., 2011a]; [Omolo et al., 2017]). Female Institute for Cancer Research (ICR) mice (SPF, 20–25 g) were purchased from WeiTonglihua Co., Ltd. (Beijing, China), with eight animals per group. The mice were shaved on their backs and disinfected. S. aureus 29213 (100 μL) at a concentration of 1 × 10^8 CFU/mL was injected into the superficial skin of the mice. The mice were divided into four groups (n = 4), as follows: S. aureus + saline, S. aureus + S2 (80× MIC, 100 μL), S. aureus + vancomycin (Van) (80× MIC, 100 μL), and saline. S2, vancomycin, and saline were injected at the same site 1 h after infection. The mice were monitored over 24 h in an environmentally controlled room at 25 ± 1°C and 55 ± 5% relative humidity with a 12 h light/dark cycle.
To image the infected skin tissues, the mice were euthanized 24 h after the injection of S. aureus. Samples were fixed in 4% buffered paraformaldehyde and subjected to hematoxylin/eosin (HE) staining. The antimicrobial activity in vivo was determined by colony counting of infected skin samples. Skin homogenates were serially diluted in saline and incubated at 37°C for 24 h.

[2] = tested on: Staphylococcus aureus 29213; experiment: Bacterial resistance development, serial passaging; type: cell-based; conditions: serial passage at sub-MIC for 15 days
From the text: Staphylococcus aureus 29213 was employed to assess the development of resistance by the serial passaging method, as previously described ([Lyu et al., 2017]). Minimum inhibitory concentration testing was first conducted for all of the compounds to be tested, as described above. S. aureus was harvested from 96-well plates of sub-MIC levels, diluted in MHB to a concentration of 2–7 × 10^5 CFU/mL, and then subjected to MIC determination for up to 15 days. The change in MIC values determines the development of antibiotic resistance in S. aureus.

S. aureus 29213 [3] = experiment: MIC in the presence of physiological salts; type: cell-based, Staphylococcus aureus; conditions: three independent repeats, unit not given in Table 4
Experimental: as §1
The MIC of peptides was determined in the presence of salts at physiological concentrations (150 mM NaCl, 4.5 mM KCl, 6 μM NH4Cl, 8 μM ZnCl2, 1 mM MgCl2, 2 mM CaCl2, and 4 μM FeCl3) as described previously ([Dong et al., 2014]). All experiments were performed three times independently.

L. plantarum 8014 = experiment: MIC, modified microtiter dilution; type: cell-based, Lactobacillus plantarum; conditions: 2–7 × 10^5 CFU/ml, 37°C, 24 h, no turbidity, at least three independent repeats
From the text: as §1

GM-CSF = experiment: Cytokine ELISA in infected skin; type: in vivo, ICR mice; conditions: 24 h after treatment, P < 0.05
Experimental: as §2
(§3) The mice were treated as described above. Skin samples were treated according to the manufacturer’s instructions. The levels of tumor necrosis factor-alpha (TNF-α), interleukin-6 (IL-6), and granulocyte-macrophage colony-stimulating factor (GM-CSF) in infected skin were measured using enzyme-linked immunosorbent assay (ELISA) kits following the manufacturer’s instructions.

IL-6 = experiment: Cytokine ELISA in infected skin; type: in vivo, ICR mice; conditions: 24 h after treatment, P < 0.05
Experimental: as §2, §3

TNF-α = experiment: Cytokine ELISA in infected skin; type: in vivo, ICR mice; conditions: 24 h after treatment, P < 0.05
Experimental: as §2, §3

CC(C)C[C@H](NC(=O)[C@H](CC(C)C)NC(=O)[C@H](Cc1c[nH]c2ccccc12)NC(=O)[C@H](Cc1c[nH]c2ccccc12)NC(=O)[C@H](Cc1c[nH]c2ccccc12)NC(=O)[C@H](CCCNC(=N)N)NC(=O)[C@@H]1CSSC[C@H](N)C(=O)N[C@@H](C)C(=O)N[C@@H](CO)C(=O)N[C@@H](Cc2ccc(O)cc2)C(=O)N[C@@H](Cc2ccccc2)C(=O)N1)C(N)=O [Peptide S2] (H-CASYFCRWWWLL-NH2; disulfide 1-6; N-terminus assumed)
MIC L. rhamnosus 7469 (L. rhamnosus 7469): >64 µM | MIC L. rhamnosus 1.0911 (L. rhamnosus 1.0911): >64 µM | MIC L. rhamnosus 1.0385 (L. rhamnosus 1.0385): >64 µM | MIC L. rhamnosus 1.0936 (L. rhamnosus 1.0936): >64 µM | MIC E. coli 25922 (E. coli 25922): >64 µM | MIC E. coli UB1005 (E. coli UB1005): >64 µM | MIC MRSA 43300 (MRSA 43300): 8 µM (≈ 13 µg/mL) | bacterial reduction in S. aureus (S. aureus ATCC 29213; 0.5 × MIC, after 5 s of exposure, PBS, 2–7 × 10^5 CFU/mL): 2 log10 | time of peptide exposure for 100% bacterial killing (S. aureus ATCC 29213; at 2 × MIC): 30 s | time of peptide exposure for 100% bacterial killing (S. aureus ATCC 29213; at MIC): 60 s | decrease in bacterial colonies at infection site versus control group (S. aureus 29213 [1]; 100 μL injected at the infected site 1 h after infection, skin homogenate colony count after 24 h, P < 0.01): 10 fold | ulceration (lesion) size, length × width (S. aureus 29213 [1]; 100 μL, 1 h after infection): significantly reduced ulceration sizes | change in MIC value, 15th day versus first day [2]: remained almost constant | MIC against S. aureus 29213, FeCl3 (S. aureus 29213 [3]; 4 μM FeCl3): 16 µM | MIC against S. aureus 29213, NH4Cl (S. aureus 29213 [3]; 6 μM NH4Cl): 8 µM | MIC against S. aureus 29213, ZnCl2 (S. aureus 29213 [3]; 8 μM ZnCl2): 4 µM | MIC against S. aureus 29213, MgCl2 (S. aureus 29213 [3]; 1 mM MgCl2): 8 µM | MIC against S. aureus 29213, CaCl2 (S. aureus 29213 [3]; 2 mM CaCl2): 16 µM | MIC against S. aureus 29213, KCl (S. aureus 29213 [3]; 4.5 mM KCl): 8 µM | MIC against S. aureus 29213, NaCl (S. aureus 29213 [3]; 150 mM NaCl): 8 µM | MIC L. plantarum 8014 (L. plantarum 8014): >64 µM | GM-CSF levels in infected skin versus control group and Van group (GM-CSF): significantly higher | IL-6 generation in infected skin (IL-6): suppressed | TNF-α generation in infected skin (TNF-α): suppressed
